ChEMBL document CHEMBL1909046, “DrugMatrix in vitro pharmacology data”

Tests used:
[1] = biological target: D(3) dopamine receptor (Homo sapiens, UniProt P35462); test: DRUGMATRIX: Dopamine D3 radioligand binding (ligand: [3H] Spiperone); format: cell membranes, CHO, Membrane; conditions: for Ki: read-out: Ki
[2] = DRUGMATRIX: Sodium/nucleoside co-transporter radioligand binding (ligand: nitrobenzylthioinosine); format: cell membranes, Cavia porcellus, Dunkin-Hartley, Cerebral cortex, Membrane; conditions: Not Active = under 50% inhibition at 10 µM
[3] = biological target: Substance-P receptor (Homo sapiens, UniProt P25103); format: cell membranes, Membrane; conditions: cho; note: in other assays of this panel Not Active means under 50% inhibition at 10 µM
Sequence of Substance-P receptor (P25103 whole entry): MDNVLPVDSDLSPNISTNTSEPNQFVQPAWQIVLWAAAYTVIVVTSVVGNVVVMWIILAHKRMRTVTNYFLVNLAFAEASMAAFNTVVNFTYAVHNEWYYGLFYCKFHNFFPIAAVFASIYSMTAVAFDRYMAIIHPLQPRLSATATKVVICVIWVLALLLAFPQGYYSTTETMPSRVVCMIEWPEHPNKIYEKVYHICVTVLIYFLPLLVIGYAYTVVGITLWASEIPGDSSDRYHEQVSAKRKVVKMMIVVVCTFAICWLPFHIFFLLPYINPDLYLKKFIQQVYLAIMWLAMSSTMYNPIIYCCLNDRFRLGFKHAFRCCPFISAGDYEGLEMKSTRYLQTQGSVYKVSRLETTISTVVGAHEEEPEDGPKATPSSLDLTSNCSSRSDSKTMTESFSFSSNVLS

[4] = DRUGMATRIX: Leukotriene, BLT (LTB4) radioligand binding (ligand: [3H]LTB4); format: cell membranes, Membrane; conditions: u-937; Not Active = under 50% inhibition at 10 µM
[5] = biological target: cGMP-specific 3',5'-cyclic phosphodiesterase (Homo sapiens, UniProt O76074); test: DRUGMATRIX: Phosphodiesterase PDE5 enzyme inhibition (substrate: [3H]cGMP + cGMP); format: tissue-based; conditions: platelet; Not Active = under 50% inhibition at 10 µM
[6] = DRUGMATRIX: Phosphodiesterase PDE3 enzyme inhibition (substrate: [3H]cAMP + cAMP); format: tissue-based, Homo sapiens; conditions: platelet; Not Active = under 50% inhibition at 10 µM
[7] = biological target: Sigma non-opioid intracellular receptor 1 (Homo sapiens, UniProt Q99720); test: DRUGMATRIX: Sigma1 radioligand binding (ligand: [3H] Haloperidol); format: cell membranes, Jurkat, Membrane; conditions: Not Active = under 50% inhibition at 10 µM
Sequence of Sigma non-opioid intracellular receptor 1 (Q99720 whole entry): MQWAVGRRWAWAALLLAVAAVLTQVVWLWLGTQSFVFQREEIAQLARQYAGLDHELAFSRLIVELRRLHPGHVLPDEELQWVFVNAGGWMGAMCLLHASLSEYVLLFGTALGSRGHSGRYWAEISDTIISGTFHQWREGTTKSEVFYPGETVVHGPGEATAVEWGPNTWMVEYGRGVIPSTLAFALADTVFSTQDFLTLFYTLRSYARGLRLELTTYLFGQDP

Sequence of D(3) dopamine receptor (P35462 whole entry): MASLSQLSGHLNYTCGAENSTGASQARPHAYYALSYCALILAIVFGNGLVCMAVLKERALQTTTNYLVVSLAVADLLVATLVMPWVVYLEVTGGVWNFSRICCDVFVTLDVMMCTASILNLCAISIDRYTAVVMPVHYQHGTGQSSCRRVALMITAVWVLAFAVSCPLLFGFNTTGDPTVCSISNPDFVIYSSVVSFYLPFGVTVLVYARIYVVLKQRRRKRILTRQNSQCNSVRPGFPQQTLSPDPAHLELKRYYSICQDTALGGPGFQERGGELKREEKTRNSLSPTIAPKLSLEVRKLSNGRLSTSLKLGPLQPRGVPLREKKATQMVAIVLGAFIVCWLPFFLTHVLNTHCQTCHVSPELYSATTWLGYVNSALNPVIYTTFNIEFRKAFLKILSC

SMILES	IC50 ([1]; cho)	IC50 [2]	Ki [2]	IC50 [3]	IC50 [4]	Ki [4]	IC50 [5]	IC50 [6]	Ki [6]	IC50 ([7]; jurkat)	IC50 ([7]; read-out: IC50)	Ki ([7]; read-out: Ki)	IC50 ([1]; read-out: IC50)	Ki [1]
OCCO [ETHYLENE GLYCOL]	Not Active	Not Active	Not Active	Not Active	Not Active	Not Active	Not Active	Not Active	Not Active	Not Active				
CCN[C@@H](C)Cc1cccc(C(F)(F)F)c1 [DEXFENFLURAMINE]	Not Active	Not Active	Not Active	Not Active	Not Active	Not Active	Not Active	Not Active	Not Active		516 nM	217 nM		
C[C@]12C/C(=C/O)C(=O)C[C@@H]1CC[C@@H]1[C@@H]2CC[C@@]2(C)[C@H]1CC[C@]2(C)O [OXYMETHOLONE]	Not Active	Not Active	Not Active	Not Active	Not Active	Not Active	Not Active	Not Active	Not Active	Not Active				
C=C(CC)C(=O)c1ccc(OCC(=O)O)c(Cl)c1Cl [ETHACRYNIC ACID]	Not Active	Not Active	Not Active	Not Active	Not Active	Not Active	Not Active	Not Active	Not Active	Not Active				
CCOC(=O)[C@H](CCc1ccccc1)N[C@@H](C)C(=O)N1Cc2ccccc2C[C@H]1C(=O)O	Not Active	Not Active	Not Active	Not Active	Not Active	Not Active	Not Active	Not Active	Not Active	Not Active				
CCc1oc2ccccc2c1C(=O)c1cc(Br)c(O)c(Br)c1 [BENZBROMARONE]	Not Active	Not Active	Not Active	Not Active	Not Active	Not Active	Not Active	Not Active	Not Active	Not Active				
CC[C@H]1OC(=O)[C@H](C)[C@@H](O[C@H]2C[C@@](C)(OC)[C@@H](O)[C@H](C)O2)[C@H](C)[C@@H](O[C@@H]2O[C@H](C)C[C@H](N(C)C)[C@H]2O)[C@](C)(OC)C[C@@H](C)C(=O)[C@H](C)[C@@H](O)[C@]1(C)O [CLARITHROMYCIN]	Not Active	Not Active	Not Active	Not Active	Not Active	Not Active	Not Active	Not Active	Not Active	Not Active				
CC(=O)O[C@]1(C(C)=O)CC[C@H]2[C@@H]3C=C(C)C4=CC(=O)CC[C@]4(C)[C@H]3CC[C@@]21C [MEGESTROL ACETATE]	Not Active	Not Active	Not Active	Not Active	Not Active	Not Active	Not Active	Not Active	Not Active	Not Active				
CC(C)C[C@H]1C(=O)N2CCC[C@H]2[C@]2(O)O[C@](NC(=O)[C@@H]3C=C4c5cccc6[nH]c(Br)c(c56)C[C@H]4N(C)C3)(C(C)C)C(=O)N12 [BROMOCRIPTINE]		Not Active	Not Active	Not Active	Not Active	Not Active	Not Active	Not Active	Not Active	Not Active			0.596 nM	0.202 nM
CC(=O)O[C@]1(C(C)=O)CC[C@H]2[C@@H]3C=C(Cl)C4=CC(=O)[C@@H]5C[C@@H]5[C@]4(C)[C@H]3CC[C@@]21C [CYPROTERONE ACETATE]	Not Active	Not Active	Not Active	Not Active	Not Active	Not Active	Not Active	Not Active	Not Active	Not Active				
CC(C)(Oc1ccc(C2CC2(Cl)Cl)cc1)C(=O)O (stereo not drawn) [CIPROFIBRATE]	Not Active	Not Active	Not Active	Not Active	Not Active	Not Active	Not Active	Not Active	Not Active	Not Active				
Cc1cnc(C(=O)NCCc2ccc(S(=O)(=O)NC(=O)NC3CCCCC3)cc2)cn1 [GLIPIZIDE]	Not Active	Not Active	Not Active	Not Active	Not Active	Not Active	Not Active	Not Active	Not Active	Not Active				
CC(C)(C)c1ccc(S(=O)(=O)/C=C/C#N)cc1 [BAY-11-7085]		Not Active	Not Active	Not Active	Not Active	Not Active	Not Active	Not Active	Not Active	Not Active			3460 nM	1170 nM
